In assay [1] the test system is integrin αvβ6-expressing DX3puroβ6 cell line. The experiment in a line: Cell binding and internalization of radiotracers, DX3puroβ6 cells. The following applies: for Affinity and selectivity for the αvβ6(+)-expressing cell line DX3puroβ6, in words: cell binding vs DX3puro control. It counts as cell-based, human.
In a further assay the target is T1, αvβ6 integrin (Homo sapiens, UniProt P06756+P18564).
T1 construct: purchased R&D systems (Minneapolis, Minn.)
The experiment in a line: Competitive binding ELISA of [19F]FBA peptides for integrin αvβ6. The protocol: Affinity of each peptide was assessed ELISA on Nunc Maxisorp Flat-bottom 96 well plates (affymetrix ebioscience, San Diego, Calif.). Integrin alpha V antibody P2W7 was purchased from Novus Biologicals (Littleton, Colo.). Bovine serum albumin (BSA) was purchased from VWR (Randor, Pa.) and TMB one solution was purchased from Promega (Madison, Wis.). αvβ6 integrin was purchased from R&D systems (Minneapolis, Minn.). Protein biotinylation kit was purchased from Amersham plc (Amersham, UK) while competing natural ligand fibronectin was purchased from Invitrogen (Carlsbad, Calif.). Affinity was measured in absorbance units by the Thermo Multiscan Plate reader with associated Ascent Software (Thermofisher, Waltham, Mass.).
The peptides were allowed to compete for 1 h with biotinylated fibronectin, a natural ligand for αvβ6; or biotinylated vitronectin, when competing against αvβ3. Briefly, a 96-well plate was coated with 50 μL/well of 5 μg/mL P2W7 in phosphate buffered saline (PBS) at 37° C. for 1 h. The plate was washed three times with PBS followed by treatment with PBS containing 5% bovine serum albumin (BSA; fraction V; w/v) and 1% Tween 20 (v/v) at 4° C. for 16 h to block nonspecific binding. The plate was washed with PBS and coated with 50 μL/well integrin in wash buffer (WaB) for 1 h and then washed three times with WaB. WaB consisted of a solution of 2 mmol/L Tris buffer (pH 7.6), 150 mmol/L sodium chloride, 1 mmol/L manganese chloride, and 0.1% Tween 20 (v/v) in deionized water. Triplicate wells were coated with 50 μL/well of a mixture of equal volumes of biotinylated fibronectin (BtFn) for αvβ6, or biotinylated vitronectin (BtVn) for αvβ3, in conjugate buffer, consisting of 1% BSA (fraction V; w/v) in WaB, and a serial dilution of peptide stock (2 mmol/L; 10% DMSO (v/v) in water) from 1 μM to 1 pM. Wells containing no peptide, no peptide and no antibody, or no peptide and no ligand served as controls. The plate was incubated for 1 h at room temperature and washed three times with WaB before ExtrAvidin-horseradish peroxidase conjugate was added (50 μL/well, 1:1,000 dilution in conjugate buffer) at room temperature for 1 h. After washing with WaB, bound BtFn or BtVn was detected by addition of TMB (50 μL/well) and incubation for 10 to 15 min. The reaction was terminated by adding 50 μL/well […] sulfuric acid and absorbance was measured at 450 nm (yellow color of acidified oxidized TMB, indicating fibronectin binding). Calculations of IC50 values are based on data analysis with Prism software (GraphPad Software).
A general note: ELISA stands for enzyme-linked immunosorbent assay.

Assay [2] concerns αvβ6-negative DX3puro control cell line. The experiment in a line: Cell binding and internalization of radiotracers, DX3puro control cells. The format is cell-based, human.
In assay [3] the test system is BxPC-3 tumors (endogenous αvβ6-expression). Conditions: 1 h; blocking with 30 mg/kg FBA-PEG28-A20FMDV2 at T=−10 min. The protocol: (PBS) or 37° C. (serum), followed by analysis on radio HPLC. Data are expressed as % probe remaining intact in sample. […] Tumor models—DX3puroβ6/DX3puro: Human melanoma cell line. DX3puroβ6 has been stably transfected to express integrin αvβ6. DX3puro is negative control cell line. […] BxPC-3: Pancreatic cell line with endogenous αvβ6-expression. MIA PaCa-2: Pancreatic cell line, no αvβ6-expression.

The subject of assay [4] is BxPC-3 cells (endogenous αvβ6(+)-expression). Conditions: 60 min incubation.

This is an account of results in patent US11485758B2, “Bi-terminal pegylated integrin-binding peptides and methods of use thereof” (The Regents of the University of California, priority 2014, dated 2022).

For orientation: IC50 means the point on the concentration scale where inhibition reaches its midpoint.

Read-outs that look alike come from different tables or passages of the source. Where a SMILES comes first, the peptide text is derived from it. Where no end group is shown, it is not given here. The star is where a group is joined. Benzoyl(4-F) = O=C(c1ccc(F)cc1)*

T1 sequence (P06756 31-889 limits assumed): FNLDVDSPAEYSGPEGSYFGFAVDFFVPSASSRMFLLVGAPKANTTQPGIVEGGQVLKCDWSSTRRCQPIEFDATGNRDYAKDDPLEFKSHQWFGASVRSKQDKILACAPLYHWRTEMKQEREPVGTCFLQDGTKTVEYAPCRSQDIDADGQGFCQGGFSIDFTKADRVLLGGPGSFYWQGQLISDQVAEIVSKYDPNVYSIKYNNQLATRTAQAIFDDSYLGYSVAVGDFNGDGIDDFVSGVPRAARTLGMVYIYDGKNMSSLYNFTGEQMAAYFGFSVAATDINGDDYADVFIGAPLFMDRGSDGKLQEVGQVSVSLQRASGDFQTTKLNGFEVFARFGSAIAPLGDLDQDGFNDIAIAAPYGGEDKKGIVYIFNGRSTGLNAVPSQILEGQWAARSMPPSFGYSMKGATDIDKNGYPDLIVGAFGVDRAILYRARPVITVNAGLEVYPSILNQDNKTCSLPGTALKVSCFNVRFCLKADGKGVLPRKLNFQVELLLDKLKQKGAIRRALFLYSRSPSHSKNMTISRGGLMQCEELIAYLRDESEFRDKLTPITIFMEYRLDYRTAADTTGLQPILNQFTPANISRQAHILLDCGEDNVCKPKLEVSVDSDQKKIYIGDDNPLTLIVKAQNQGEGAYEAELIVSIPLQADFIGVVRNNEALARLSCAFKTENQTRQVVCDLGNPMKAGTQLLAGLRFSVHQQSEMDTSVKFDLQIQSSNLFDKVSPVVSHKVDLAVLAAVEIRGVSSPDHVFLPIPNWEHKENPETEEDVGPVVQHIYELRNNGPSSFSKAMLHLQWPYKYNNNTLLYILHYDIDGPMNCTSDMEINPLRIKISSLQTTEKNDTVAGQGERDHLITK
T1 sequence (P06756 891-992 limits assumed): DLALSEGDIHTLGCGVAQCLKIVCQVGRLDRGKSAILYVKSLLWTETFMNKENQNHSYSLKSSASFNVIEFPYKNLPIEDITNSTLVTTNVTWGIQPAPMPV
T1 sequence (P18564 22-707 limits assumed): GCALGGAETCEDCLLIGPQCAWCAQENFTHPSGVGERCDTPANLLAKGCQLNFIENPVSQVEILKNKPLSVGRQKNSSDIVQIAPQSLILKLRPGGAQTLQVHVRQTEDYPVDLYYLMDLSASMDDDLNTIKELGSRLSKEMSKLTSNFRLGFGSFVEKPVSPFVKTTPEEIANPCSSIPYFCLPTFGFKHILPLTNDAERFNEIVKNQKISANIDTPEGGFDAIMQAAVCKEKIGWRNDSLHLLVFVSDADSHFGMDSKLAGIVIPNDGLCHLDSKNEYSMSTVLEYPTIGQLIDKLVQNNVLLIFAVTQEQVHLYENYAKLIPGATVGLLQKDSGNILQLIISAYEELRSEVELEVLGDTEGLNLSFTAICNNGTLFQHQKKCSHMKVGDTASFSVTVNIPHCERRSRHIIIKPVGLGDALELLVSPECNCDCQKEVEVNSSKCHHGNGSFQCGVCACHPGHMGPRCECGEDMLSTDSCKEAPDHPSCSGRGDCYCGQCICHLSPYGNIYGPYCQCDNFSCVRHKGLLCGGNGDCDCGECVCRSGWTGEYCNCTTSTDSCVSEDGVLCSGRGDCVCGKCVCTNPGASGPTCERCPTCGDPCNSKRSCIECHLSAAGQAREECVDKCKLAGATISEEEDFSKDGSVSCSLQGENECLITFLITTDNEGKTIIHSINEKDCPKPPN

Consider D(KLAKLAK)2-GG-PEG28-A20FMDV2-K, for which the “Affinity and selectivity for the αvβ6(+)-expressing cell line DX3puroβ6, in words” value in assay [1] was “does not affect its affinity, specificity, and internalization-potential”.

In the case of PEG28-A20FMDV2-GG-D(KLAKLAK)2-K, the “Affinity and selectivity for the αvβ6(+)-expressing cell line DX3puroβ6, in words” value in assay [1] is “does not affect its affinity, specificity, and internalization-potential”.

Molecule `CC(C)C[C@H](NC(=O)[C@H](CC(=O)O)NC(=O)[C@H](CO)NC(=O)[C@H](CCCNC(=N)N)NC(=O)c1ccc(F)cc1)C(=O)N[C@H](C(=O)N1CCC[C@H]1C(=O)N[C@@H](CC(C)C)C(=O)N[C@@H](Cc1ccccc1)C(N)=O)[C@@H](C)O` ({Benzoyl(4-F)}-RSDLTPLF-NH2) displayed an IC50 at αvβ6 integrin of 7 nM.

With `CC(C)C[C@H](NC(=O)[C@H](CC(=O)O)NC(=O)CNC(=O)[C@H](CCCNC(=N)N)NC(=O)[C@H](CC(C)C)NC(=O)[C@H](CC(N)=O)NC(=O)[C@@H]1CCCN1C(=O)[C@@H](NC(=O)[C@H](C)NC(=O)[C@H](CC(N)=O)NC(=O)CCOCCOCCOCCOCCOCCOCCOCCOCCOCCOCCOCCOCCOCCOCCOCCOCCOCCOCCOCCOCCOCCOCCOCCOCCOCCOCCOCCOCCNC(=O)c1ccc(F)cc1)C(C)C)C(=O)N[C@@H](CCC(N)=O)C(=O)N[C@H](C(=O)N[C@@H](CC(C)C)C(=O)N[C@@H](C)C(=O)N[C@@H](CCC(N)=O)C(=O)N[C@@H](CCCCN)C(=O)N[C@H](C(=O)N[C@@H](C)C(=O)N[C@@H](CCCNC(=N)N)C(=O)N[C@H](C(=O)NCCOCCOCCOCCOCCOCCOCCOCCOCCOCCOCCOCCOCCOCCOCCOCCOCCOCCOCCOCCOCCOCCOCCOCCOCCOCCOCCOCCOCCC(N)=O)[C@@H](C)O)C(C)C)C(C)C` [PEGylated A20FMDV2 not bearing K(IPA)E], in assay [2], the “Binding and internalization in DX3puro control, in words” value was “low”. In addition, the “Binding to DX3puroβ6 cells (fraction of total radioactivity)” value in assay [1] (60 min incubation) came out at 52%. In addition, the “Internalized share of bound radioactivity, DX3puroβ6 cells” value in assay [1] (of bound radioactivity) is on record as 44%.

Turning to “c(RSDLTPLFE)K([^19F]FBA)-NH2 (RSDLTPLFEK((19F)FBA)-NH2; bridge (positions not given here); also: residues 1-9 cyclized, mode not given here)”, in the assay with αvβ6 integrin (ELISA, calculated by PRISM, read-out: IC50 against αvβ6), the IC50 was over 300 nM.

For `CC(C)C[C@H](NC(=O)[C@H](CC(=O)O)NC(=O)[C@H](CO)NC(=O)[C@@H](N)CCCNC(=N)N)C(=O)N[C@H](C(=O)N1CCC[C@H]1C(=O)N[C@@H](CC(C)C)C(=O)N[C@@H](Cc1ccccc1)C(N)=O)[C@@H](C)O` (H-RSDLTPLF-NH2), on αvβ6 integrin, the 50% inhibitory concentration (IC50) came to 7 nM and the “Selectivity for αvβ6 over αvβ3” value stood at 100 times.

As to “18F-FBA-PEG28-A20FMDV2-PEG28 [compound 5]”, in assay [2] (60 min incubation), the “Binding to DX3puro control cells” value was 3.5±0.2% and the “Internalization into DX3puro control cells” value worked out at 0.9±0.1%. Also, in assay [1] (60 min incubation), the “Binding to DX3puroβ6 cells (fraction of total radioactivity)” value worked out at 51.0±0.9% and the “Internalization into DX3puroβ6 cells (of total radioactivity)” value is reported as 33.5±1.8%. The “Reduction of BxPC-3 tumor uptake vs unblocked” value in assay [3] is listed as 92%. Besides, in assay [4], the “Binding to BxPC-3 cells (fraction of total radioactivity)” value stood at 37.2±1.9% and the “Internalization into BxPC-3 cells (of total radioactivity)” value is reported as 28.4±0.9%.

As to PEG28-A20FMDV2(K16R)-PEG28, in assay [1] (1 h, basis not given), the “Internalization in αvβ6 cells” value is over 50%. The “Binding to DX3puroβ6 cells (fraction of total radioactivity)” value in assay [1] (60 min incubation) is over 70%.
